From paper PMC10641921, “Optimization of mTOR Inhibitors Using Property-Based Drug Design and Free–Wilson Analysis for Improved In Vivo Efficacy” (ACS Medicinal Chemistry Letters, 2023)
Like-named read-outs stand apart in the source and are kept apart here.

Key:
[1] = molecular target: human ether-a-go-go (hERG) (Homo sapiens, UniProt Q12809); test: hERG patch clamp; type: cell-based
[2] = Ames test with and without S9; type: cell-based; settings: with and without S9 activation
[3] = test system: PI3Kβ; test: PI3Kβ selectivity; type: biochemical
[4] = test system: PI3Kδ; test: PI3Kδ selectivity; type: biochemical
[5] = test system: panel of 298 kinases; test: Panel of 298 kinases (Invitrogen); type: biochemical; settings: 298 kinases tested at 1 μM
[6] = test system: PI3Kγ; test: PI3Kγ selectivity; type: biochemical
[7] = test system: pAKT-S473 in PC-3 cells (TORC2); test: Cellular p-AKT (ser473) AlphaScreen assay in PC-3 cells (TORC2 activity); type: cell-based, human; settings: for IC50: read-out: pAKT S473 Cell IC50
Procedure: The target product profile for 1 and the next-generation analogs described here was for a dual inhibitor against both TORC1 and TORC2.
(§1) FRAP1 (mTOR) recombinant protein and GFP-4E-BP1 were purchased from Invitrogen (Carlsbad, CA, US).
(§2) The kinase activity assay was conducted in 50 mM Hepes buffer containing 10 mM MgCl2, 0.01% Brij, 0.2 mM EDTA, 2 mM DTT and 1% DMSO (after compound addition) at pH 7.3.
(§3) The IC50 value for each compound was determined in the presence of compound (various concentrations, from 0 to 10 μM) and a fixed amount of ATP (50 μM, final concentration), substrate GFP-4E-BP1 (400 nM, final concentration). The enzymatic reaction was initiated by adding FRAP1 (mTOR) (2 nM, final concentration). The assay was conducted at room temperature (~22 °C). After 30 min, the enzymatic reaction was stopped using Tb-anti-p4E-BP1 (2 nM final concentration, Invitrogen) and EDTA (20 mM final concentration, Sigma) in TR-FRET dilution buffer provided by Invitrogen. All the reagents were dispensed using a Multidrop Combi reagent dispenser (ThermoFisher Scientific, Waltham, […]
The release of product was detected using a BMG PHERAstar plate reader (BMG LABTECH, Ortenberg, Germany) and the Lantha Screen module (337 nm excitation wavelength) and measuring the ratio of fluorescence 520/490 nm (emission wavelengths). Experimental data was fitted using Eq. (1):
Vi and Vo are the rates of the enzyme activity in the presence and in the absence of inhibitor; n is the Hill coefficient; I is the free inhibitor concentration; IC 50 is a measure of potency that is equivalent to a […]
Cellular p-AKT (ser473) assay in PC-3 cells
PC-3 cells (PTEN deleted, human prostate cell line) were maintained in F12K media with 10% heat-inactivated fetal bovine serum (FBS) in 37 °C, 5% CO2 incubator. This method describes the procedure […]
from Perkin Elmer (catalog# TGRAS500). On day 1, 50,000 PC-3 cells were plated in 160 µL complete […]
Plates were placed in 37 °C, 5%
CO2 incubator for 24 h. On day 2, all media was removed and replaced with 160 µL starvation media which is F12K media (no FBS) and 0.1% BSA. Plates are placed in 37 °C, 5% CO2 incubator for 16 h. On day 3, compounds were both solubilized and serially diluted in DMSO and added to a secondary plate containing starvation media. 40 µL of compound/starvation media were added to the 160 µL in cell plate and plates were placed back in the incubator for 1 h. Cells were then activated by adding 22 µL FBS (for a final concentration of 10% FBS) for 10 min in the incubator. Media was removed from the well and cells were lysed in 100 µL SureFire kit lysis buffer and then shake n for 15 min at 900 rpm. AlphaScreen […]
assay was performed according to manufacturer’s instructions. 4 µL of lysate was added to PerkinElmer 96-well Proxiplate then 5 µL of Reaction Buffer plus Activation Buffer. Plates were shaken for 2 h at room temperature. 2 µL of Donor Beads in Dilution Buffer were added to the plate and the plate was shaken for 2 h at room temperature. The plate was read using BMG Labtech PHERAstar using AlphaScreen settings. Each analog was run in duplicate wells and a single IC50 value was calculated in […]

[8] = molecular target: T1, cyclin-dependent kinase 9 (CDK9) (Homo sapiens, UniProt P50750); test: Kinase panel (Invitrogen) at 1 μM, CDK9; type: biochemical
T1 construct: purchased Invitrogen

[9] = molecular target: T2, DNA-PK (Homo sapiens, UniProt P78527); test: DNA-PK inhibition (Invitrogen); type: biochemical
T2 construct: purchased Invitrogen

[10] = test system: interleukin-1 receptor-associated kinase 4 (IRAK1); test: Kinase panel (Invitrogen) at 1 μM, IRAK1; type: biochemical
[11] = molecular target: T3, FRAP1 (mTOR) recombinant protein (Homo sapiens, UniProt P42345); test: mTOR kinase inhibition assay (TR-FRET, GFP-4E-BP1); type: biochemical; settings: enzyme
T3 construct: purchased Invitrogen (Carlsbad, CA, US)
Procedure: as §1, §2, §3
The release of product was detected using a BMG PHERAstar plate reader (BMG LABTECH, Ortenberg, Germany) and the Lantha Screen module (337 nm excitation wavelength) and measuring the ratio of fluorescence 520/490 nm (emission wavelengths). Experimental data was fitted using Eq. (1): […]

[12] = test system: mouse xenograft models; test: Mouse xenograft models (earlier efficacy of lead 1); type: in vivo; settings: 10 and 30 mpk
[13] = Homo sapiens, PC-3, PC-3 cell line
[14] = Homo sapiens, p-AKT S473, PC-3 cells, mean of N runs, read-out: Cell pEC50 (converted)

T3 sequence (P42345 1360-2549 limits assumed): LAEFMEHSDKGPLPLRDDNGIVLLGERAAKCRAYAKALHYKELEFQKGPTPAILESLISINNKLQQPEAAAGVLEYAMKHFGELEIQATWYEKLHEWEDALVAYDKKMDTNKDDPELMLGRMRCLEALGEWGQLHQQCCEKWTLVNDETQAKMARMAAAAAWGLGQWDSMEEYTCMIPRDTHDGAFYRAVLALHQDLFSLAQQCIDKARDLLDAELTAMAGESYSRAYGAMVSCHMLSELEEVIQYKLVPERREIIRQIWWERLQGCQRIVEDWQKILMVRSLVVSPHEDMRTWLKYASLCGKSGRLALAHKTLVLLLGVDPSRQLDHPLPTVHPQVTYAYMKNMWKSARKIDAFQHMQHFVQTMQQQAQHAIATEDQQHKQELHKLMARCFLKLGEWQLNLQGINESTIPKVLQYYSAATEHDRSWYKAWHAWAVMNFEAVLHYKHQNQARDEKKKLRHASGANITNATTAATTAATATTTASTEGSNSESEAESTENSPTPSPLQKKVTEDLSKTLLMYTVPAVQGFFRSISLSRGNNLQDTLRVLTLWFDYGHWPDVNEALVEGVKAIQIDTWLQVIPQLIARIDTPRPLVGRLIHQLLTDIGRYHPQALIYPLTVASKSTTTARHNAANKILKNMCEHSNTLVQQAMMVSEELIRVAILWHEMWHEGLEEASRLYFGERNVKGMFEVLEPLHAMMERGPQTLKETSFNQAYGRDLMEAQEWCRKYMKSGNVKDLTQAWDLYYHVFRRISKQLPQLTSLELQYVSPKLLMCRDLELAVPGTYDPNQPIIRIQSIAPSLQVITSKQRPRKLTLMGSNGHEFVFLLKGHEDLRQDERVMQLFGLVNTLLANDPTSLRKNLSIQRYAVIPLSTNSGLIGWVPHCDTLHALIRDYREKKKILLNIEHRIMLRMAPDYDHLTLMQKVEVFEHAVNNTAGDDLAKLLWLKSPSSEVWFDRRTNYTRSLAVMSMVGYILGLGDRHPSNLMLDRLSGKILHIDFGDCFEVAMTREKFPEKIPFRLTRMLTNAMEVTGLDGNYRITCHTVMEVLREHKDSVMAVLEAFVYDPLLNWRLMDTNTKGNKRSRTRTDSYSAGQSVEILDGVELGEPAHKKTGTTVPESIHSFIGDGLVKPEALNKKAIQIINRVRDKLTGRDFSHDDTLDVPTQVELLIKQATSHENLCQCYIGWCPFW
Sequence of human ether-a-go-go (hERG) (Q12809 whole entry): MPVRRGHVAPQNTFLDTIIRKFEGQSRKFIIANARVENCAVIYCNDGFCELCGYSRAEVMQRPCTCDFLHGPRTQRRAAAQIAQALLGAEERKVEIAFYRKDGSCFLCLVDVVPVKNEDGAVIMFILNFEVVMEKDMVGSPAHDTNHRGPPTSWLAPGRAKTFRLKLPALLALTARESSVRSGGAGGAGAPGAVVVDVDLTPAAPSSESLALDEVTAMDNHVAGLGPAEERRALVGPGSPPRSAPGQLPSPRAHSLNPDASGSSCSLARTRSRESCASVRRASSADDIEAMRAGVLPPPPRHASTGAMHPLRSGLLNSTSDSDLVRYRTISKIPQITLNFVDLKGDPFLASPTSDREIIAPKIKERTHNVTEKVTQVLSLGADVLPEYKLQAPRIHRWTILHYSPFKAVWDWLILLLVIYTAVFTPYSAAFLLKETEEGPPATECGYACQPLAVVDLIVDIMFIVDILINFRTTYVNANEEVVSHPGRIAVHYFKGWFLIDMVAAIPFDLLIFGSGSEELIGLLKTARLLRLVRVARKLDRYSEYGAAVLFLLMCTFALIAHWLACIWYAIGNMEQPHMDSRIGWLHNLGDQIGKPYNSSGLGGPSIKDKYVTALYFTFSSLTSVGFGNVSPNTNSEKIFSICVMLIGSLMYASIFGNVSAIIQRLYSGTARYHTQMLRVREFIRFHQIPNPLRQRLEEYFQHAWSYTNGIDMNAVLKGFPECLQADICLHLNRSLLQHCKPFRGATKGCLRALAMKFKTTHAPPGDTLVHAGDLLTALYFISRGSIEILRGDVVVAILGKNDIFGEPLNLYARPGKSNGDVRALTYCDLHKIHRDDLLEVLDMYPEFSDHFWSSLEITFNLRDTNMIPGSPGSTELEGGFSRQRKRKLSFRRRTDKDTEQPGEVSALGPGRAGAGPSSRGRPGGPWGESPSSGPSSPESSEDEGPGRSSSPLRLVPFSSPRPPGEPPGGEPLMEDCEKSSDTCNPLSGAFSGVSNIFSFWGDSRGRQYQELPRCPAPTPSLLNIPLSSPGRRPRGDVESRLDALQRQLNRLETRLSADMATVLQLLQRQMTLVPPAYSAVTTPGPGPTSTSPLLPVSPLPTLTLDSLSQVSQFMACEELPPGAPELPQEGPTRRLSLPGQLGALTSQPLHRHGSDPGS
T1 sequence (P50750 whole entry): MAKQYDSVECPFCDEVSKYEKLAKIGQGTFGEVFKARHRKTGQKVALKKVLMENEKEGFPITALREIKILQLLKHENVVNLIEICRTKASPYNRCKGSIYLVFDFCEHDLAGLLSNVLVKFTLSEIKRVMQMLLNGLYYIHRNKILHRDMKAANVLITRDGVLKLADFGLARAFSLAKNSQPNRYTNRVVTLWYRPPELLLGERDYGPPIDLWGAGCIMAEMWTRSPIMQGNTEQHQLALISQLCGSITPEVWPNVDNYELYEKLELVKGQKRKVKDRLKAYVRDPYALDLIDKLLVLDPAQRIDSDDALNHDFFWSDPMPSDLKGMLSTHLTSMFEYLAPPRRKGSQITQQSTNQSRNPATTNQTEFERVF
T1 sequence (O60563 whole entry partner): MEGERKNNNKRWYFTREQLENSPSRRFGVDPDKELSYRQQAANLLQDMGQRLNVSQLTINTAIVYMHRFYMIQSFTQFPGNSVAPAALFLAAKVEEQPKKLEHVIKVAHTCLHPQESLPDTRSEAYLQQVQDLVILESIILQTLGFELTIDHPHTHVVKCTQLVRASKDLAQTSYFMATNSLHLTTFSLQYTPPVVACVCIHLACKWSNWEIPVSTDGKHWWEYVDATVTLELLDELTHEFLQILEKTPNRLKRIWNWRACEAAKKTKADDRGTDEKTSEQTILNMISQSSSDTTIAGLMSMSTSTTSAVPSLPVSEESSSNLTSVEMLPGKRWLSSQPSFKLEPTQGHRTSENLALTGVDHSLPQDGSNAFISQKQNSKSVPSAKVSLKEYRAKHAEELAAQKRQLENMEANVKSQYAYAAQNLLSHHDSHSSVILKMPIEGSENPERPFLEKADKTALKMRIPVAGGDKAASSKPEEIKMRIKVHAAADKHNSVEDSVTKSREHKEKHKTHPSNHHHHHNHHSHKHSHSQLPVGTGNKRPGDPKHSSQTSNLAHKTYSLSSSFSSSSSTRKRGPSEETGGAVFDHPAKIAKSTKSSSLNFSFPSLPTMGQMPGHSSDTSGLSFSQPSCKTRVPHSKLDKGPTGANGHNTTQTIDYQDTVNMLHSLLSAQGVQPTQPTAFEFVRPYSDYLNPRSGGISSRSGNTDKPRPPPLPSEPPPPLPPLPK

Compound | IC50 [1] | Ames test [2] | Selectivity against PI3Kβ [3] | Selectivity against PI3Kδ [4] | Kinase panel selectivity [5] | Selectivity against PI3Kγ [6] | IC50 [7, 13] | EC50 [7, 14] | IC50 ([7]; PC-3 cell line) | inhibition at 1 µM [8] | inhibition at 1 µM [9] | IRAK1 inhibition [10] | IC50 [11] | EC50 ([7]; Homo sapiens, PC-3, Figure 1 profile, read-out: cell EC50) | In vivo efficacy [12]
C[C@@]12COCCN1c1nc(-c3cccc4[nH]ccc34)ncc1N([C@H]1CC[C@H](O)CC1)C2=O [14c] | > 40000 nM | negative | 180 × | 6 × | only two had inhibition >20% | 180 × | 10 nM | 12.6 nM | 13 nM | 34% | 13% | 22% |  |  | 
CC(F)(F)CN1C(=O)[C@]2(C)COCCN2c2nc(-c3ccc(NC(=O)NC4CC4)cc3)ncc21 [compound 1] |  |  |  |  |  |  | 70 nM | 70.8 nM |  |  |  |  | 12 nM | 70 nM | significant in vivo efficacy
